Results from PubChem BioAssay AID1919017 (Molecular Pharmacology Branch, DTP, NCI, 2023).
Where “and” joins values, the source holds several entries; their conditions need not be identical. Equal entries are not always repeated.

Tested on: SW1271 complex spheroids with HUVEC/MSC, growth, % test/control
Test: Anticancer human tumor SW1271 cell line growth inhibition [AhR];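 note: spheroids exposed to agents for 7 days before readout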
Details: for viability, T/C: stronger effect = lower value
How it was run: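 Complex tumor spheroids co-cultured with HUVEC and human MSC stroma; AhR antagonists tested in combination with standard-of-care and investigational agents. Top concentration at or near clinical Cmax (else 10 microM), half-log dilutions; growth expressed as percent test/control.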

[1] = curve of first compound, second compound 0.1 µM
[2] = curve of first compound, second compound 0.316 µM
[3] = curve of first compound, second compound 1 µM
[4] = curve of first compound, second compound 3.16 µM
[5] = curve of first compound, second compound 10 µM
[6] = second compound 0.1 µM, first compound 0.0316 µM
[7] = second compound 0.1 µM, first compound 0.1 µM
[8] = second compound 0.1 µM, first compound 0.316 µM
[9] = second compound 0.1 µM, first compound 1 µM
[10] = second compound 0.1 µM, first compound 3.16 µM
[11] = second compound 0.1 µM, first compound 10 µM
[12] = second compound 0.316 µM, first compound 0.0316 µM
[13] = second compound 0.316 µM, first compound 0.1 µM
[14] = second compound 0.316 µM, first compound 0.316 µM
[15] = second compound 0.316 µM, first compound 1 µM
[16] = second compound 0.316 µM, first compound 3.16 µM
[17] = second compound 0.316 µM, first compound 10 µM
[18] = second compound 1 µM, first compound 0.0316 µM
[19] = second compound 1 µM, first compound 0.1 µM
[20] = second compound 1 µM, first compound 0.316 µM
[21] = second compound 1 µM, first compound 1 µM
[22] = second compound 1 µM, first compound 3.16 µM
[23] = second compound 1 µM, first compound 10 µM
[24] = second compound 3.16 µM, first compound 0.0316 µM
[25] = second compound 3.16 µM, first compound 0.1 µM
[26] = second compound 3.16 µM, first compound 0.316 µM
[27] = second compound 3.16 µM, first compound 1 µM
[28] = second compound 3.16 µM, first compound 3.16 µM
[29] = second compound 3.16 µM, first compound 10 µM
[30] = second compound 10 µM, first compound 0.0316 µM
[31] = second compound 10 µM, first compound 0.1 µM
[32] = second compound 10 µM, first compound 0.316 µM
[33] = second compound 10 µM, first compound 1 µM
[34] = second compound 10 µM, first compound 3.16 µM
[35] = second compound 10 µM, first compound 10 µM

Compound	IC50 [1]	IC50 [2]	IC50 [3]	IC50 [4]	IC50 [5]	viability, T/C [6]	viability, T/C [7]	viability, T/C [8]	viability, T/C [9]	viability, T/C [10]	viability, T/C [11]	viability, T/C [12]	viability, T/C [13]	viability, T/C [14]	viability, T/C [15]	viability, T/C [16]	viability, T/C [17]	viability, T/C [18]	viability, T/C [19]	viability, T/C [20]	other results
O=C(C=Cc1cccc(S(=O)(=O)Nc2ccccc2)c1)NO	–	–	–	–	–	–	–	–	–	–	–	–	–	–	–	–	–	–	–	–	viability, T/C (compound 0.0316 µM): 103% and 83.5% and 85.7%; viability, T/C (compound 0.1 µM): 93.6% and 105% and 72.1%; viability, T/C (compound 0.316 µM): 84.1% and 62.7% and 54.9%; viability, T/C (compound 1 µM): 62.3% and 55.8% and 46.2%; viability, T/C (compound 3.16 µM): 31.1% and 22.6% and 23.3%; viability, T/C (compound 10 µM): 13.2% and 16.8% and 9.23%; IC50 (curve of compound): 1.55 µM and 0.963 µM and 0.556 µM
O=C(c1cc(Cc2n[nH]c(=O)c3ccccc23)ccc1F)N1CCN(C(=O)C2CC2)CC1 + CC(CO)NC(=O)c1cc(-c2ccc(Cl)cc2)nn(-c2cnn(C)c2)c1=O	> 10 µM	> 10 µM	> 10 µM	> 10 µM	> 10 µM	84.4%	95.4%	100%	82.1%	88.2%	78.8%	79.8%	77.9%	75.8%	81.8%	77.7%	75.8%	79.7%	99.7%	83.8%	viability, T/C [21]: 67.8%; viability, T/C [22]: 78%; viability, T/C [23]: 103%; viability, T/C [24]: 76.9%; viability, T/C [25]: 79.3%; viability, T/C [26]: 79.8%; viability, T/C [27]: 92.2%; viability, T/C [28]: 68.5%; viability, T/C [29]: 82.5%; viability, T/C [30]: 67.8%; viability, T/C [31]: 67.3%; viability, T/C [32]: 76.2%; viability, T/C [33]: 81.7%; viability, T/C [34]: 81.2%; viability, T/C [35]: 60.6%
CC1(C)CCC(CN2CCN(c3ccc(C(=O)NS(=O)(=O)c4ccc(NCC5CCOCC5)c([N+](=O)[O-])c4)c(Oc4cnc5[nH]ccc5c4)c3)CC2)=C(c2ccc(Cl)cc2)C1 + CC(CO)NC(=O)c1cc(-c2ccc(Cl)cc2)nn(-c2cnn(C)c2)c1=O	> 10 µM	> 10 µM	> 10 µM	> 10 µM	> 10 µM	85.8%	90.7%	107%	98.6%	82.7%	71.5%	84.4%	73%	71.8%	84.2%	100%	78.3%	91%	89.3%	78.8%	viability, T/C [21]: 80.4%; viability, T/C [22]: 85%; viability, T/C [23]: 86.3%; viability, T/C [24]: 68%; viability, T/C [25]: 70.2%; viability, T/C [26]: 91.4%; viability, T/C [27]: 82.5%; viability, T/C [28]: 60.7%; viability, T/C [29]: 88.6%; viability, T/C [30]: 70.8%; viability, T/C [31]: 69.3%; viability, T/C [32]: 74.7%; viability, T/C [33]: 54.8%; viability, T/C [34]: 78.2%; viability, T/C [35]: 78.2%
NS(=O)(=O)OCC1CC(n2ccc3c(NC4CCc5ccccc54)ncnc32)CC1O (configuration not stated) + Cc1ccccc1N=Nc1ccc(NC(=O)c2ccnn2C)c(C)c1	> 10 µM	> 10 µM	> 10 µM	> 10 µM	> 10 µM	129%	161%	118%	101%	91.2%	82.5%	135%	165%	112%	95.9%	103%	86.3%	157%	132%	151%	viability, T/C [21]: 88.2%; viability, T/C [22]: 80.1%; viability, T/C [23]: 78.5%; viability, T/C [24]: 157%; viability, T/C [25]: 206%; viability, T/C [26]: 111%; viability, T/C [27]: 89.7%; viability, T/C [28]: 89.1%; viability, T/C [29]: 83.2%; viability, T/C [30]: 128%; viability, T/C [31]: 132%; viability, T/C [32]: 123%; viability, T/C [33]: 94%; viability, T/C [34]: 77.4%; viability, T/C [35]: 84.9%
